{
  "source": "ChEMBL document CHEMBL5727501",
  "about": "“Bicyclic compounds and their use as antibacterial agents and β-lactamase inhibitors” (2020)",
  "key": {"[1]": {"assay": "(§1) Test for beta-lactamase Inhibitory Activity: he inhibitory activities of present compounds against various enzymes were measured by spectrophotometric assay using […] and using nitrocefin as a substrate [J. Antimicrob. Chemother., 28, pp 775-776 (1991)]. The concentration of inhibitor (IC50) which inhibits by 50% the reaction of hydrolysis of nitrocefin by the enzyme is determined."}, "[2]": {"assay": "as §1", "remark": "listed apart in the source"}},
  "data": [
    {"compound": "CC(=O)NNC(=O)[C@@H]1CC[C@@H]2CN1C(=O)N2OS(=O)(=O)O", "values": [
      {"measurement": "IC50", "setting": "[1]", "value": 91, "unit": "nM"},
      {"measurement": "IC50", "setting": "[2]", "value": 8, "unit": "nM"}
    ]}
  ]
}
